# Measured values from patent US9050353B2, “Use of icariin and epimedium flavonoids containing icariin to treat diseases associated with myelin sheath lesion” (Xuanwu Hospital of Capital Medical University, priority 2010, dated 2015).
# System: CNPase
# Assay: Cerebral cortex CNPase content by Western blot, EAE rats
# Format: in vivo
# Conditions: positive control drug, dose not given
# Experimental: Preparation of rat model and administration: experimental autoimmune encephalomyelitis (EAE) model is an important tool for studying various human demyelinating diseases of nervous system. In the example, the preparation of EAE rat model was performed by multipoint immunizing female Lewis rats subcutaneously at tail root with a homogenate of spinal cord and cerebral gray matter of Guinea pig as well as complete Freund's adjuvant after emulsification. They were intragastrically administered with Epimedium flavanoids for 3 weeks.
# Experimental objective: myelin sheath is formed with prominences of oligodendroglial cells. […] In this experiment, CNPase content of cerebral cortex in EAE rat model was measured by Western blot method, CNPase content of spinal cord lumbar intumescentia was measured by immunohistochemical method; and the effects of Epimedium flavanoids on these contents were observed.
# Experimental method: rats were anesthetized and sacrificed, cerebral cortex was taken, total protein was extracted by ice cleavage for making Western blot sample, added with CNPase primary antibody and incubated, added with corresponding secondary antibody, ECL colorated, Kodak film exposed. Pictures were analyzed by Image J software and standardized with β-actin (as internal reference).
smiles,measurement,value
CC(=O)OCC(=O)[C@@]1(O)CC[C@H]2[C@@H]3CCC4=CC(=O)C=C[C@]4(C)[C@H]3C(=O)C[C@@]21C [prednisone acetate],CNPase/actin Integration grey level,1.33 ± 0.06
